Measured values as given in US7884133B2, “Pharmaceutical compositions containing (+) cannabidioil and derivatives thereof and some such novel derivatives” (priority 2003, dated 2011).
pKd, pKi: −log10 of the molar value. Entries after “also recorded” stand apart in the source; their conditions may differ.

What was measured:
female Sabra mice [1] = test: Tetrad: ambulation (horizontal movements) in an open field; format: in vivo; settings: 20 mg/kg i.p., open field 8 min, 30 or 60 min after injection; normalized; * = P<0.05 vs vehicle
Method: (§1) Mice were injected with antagonist 90 minutes before testing and/or with agonist 60 minutes before testing in a series of four assays which reflect central cannabinoid activity [Martin (1991) id. ibid.; modified by Fride, E. and R. Mechoulam (1993) id. ibid.]. This “tetrad” consists of, consecutively, ambulation and rearing in an open field (8 minutes), immobility on an elevated ring of 5 cm diameter (4 minutes), rectal temperature (Yellow

female Sabra mice [2] = test: Tetrad: rearing (vertical movements) in an open field; format: in vivo; settings: 20 mg/kg i.p.
Method: as §1

female Sabra mice [3] = test: Tetrad: catalepsy (immobility) on an elevated ring; format: in vivo; settings: 20 mg/kg i.p., elevated ring 4 min; normalized; * = P<0.05 vs vehicle
Method: as §1

female Sabra mice [4] = test: Hot plate analgesia (centrally mediated pain); format: in vivo
Method: (§2) Pain perception on a hot plate, is considered to be mediated by a central mechanism whereas the second, late phase of the response to an implantar injection of formalin reflects inflammatory pain mechanisms [Tjolsen, A. and Hole (1997) id. ibid.].
(§3) Thus, central pain perception was assessed by the analgesic response on a hot plate (55° C., Columbus Instruments, OH, USA). Peripheral pain was measured by the response to implantar injection of formalin (4%) 45 minutes after injection of the drug.

female Sabra mice [5] = test: Hypothermia (rectal temperature); format: in vivo; settings: 20 mg/kg i.p., * = P<0.05 vs vehicle
Method: as §1
(§4) Defecation was measured as the number of fecal pellets voided in the open field. In some experiments (as indicated below), fecal pellets and body temperature were assessed for a prolonged period (3 hr).

female Sabra mice [6] = test: Intestinal motility (defecation, number of fecal pellets); format: in vivo; settings: 20 mg/kg i.p.
Method: as §4

[7] = test system: arachidonic acid-induced ear inflammation in the mouse; test: Arachidonic acid induced inflammation of the external ear; format: in vivo; settings: for potency compared to indomethacin in ear inflammation, in words: (+)-CBD-DMH 40 or 10 mg/kg vs indomethacin 20 mg/kg
Method: Ear inflammation was measured by assessing ear tissue swelling after topical application of arachidonic acid, as described previously [Hanus (1999) id. ibid.]. Briefly, at various times after i.p. drug injections, arachidonic acid was applied to the inner surface of one ear (4.5 mg dissolved in […] ethanol). The opposite ear served as control (5 ethanol). Ear thickness was determined (in 0.01-mm units) by using a dial thickness gauge (Mitutoyo, Japan) every 15 minutes for 90 minutes, starting immediately after arachidonic acid application.

[8] = test system: formalin-induced peripheral pain in mice; test: Formalin-induced peripheral pain (second phase); format: in vivo; settings: formalin 4% in hind footpad, 45 minutes after drug; paw licks over 60 minutes
Method: Formalin (4%) was injected in the left hind footpad and the number of licks of the injected foot were recorded for each 5 minutes interval for the 60 minutes starting immediately after formalin application.
as §2, §3

[9] = test system: CB1−/− receptor knockout mice; test: Intestinal motility in CB1−/− receptor knockout mice; format: in vivo; settings: 20 mg/kg i.p., defecation rate recorded for 3 hours
Method: Female CB1−/− knockout mice were injected i.p. with (+)-7-OH-CBD-DMH, (+)-CBD-DMH or Δ^9-THC (20 mg/kg). Intestinal motility (defecation rate) was recorded for a period of 3 hours.
(§5) Female Sabra mice (2-3 months of age) were purchased from Harlan, Israel. Breeding pairs of CB1−/− receptor knockout mice were provided by Prof. A. Zimmer, University Clinic Bonn, Germany.
as §4

female Sabra mice [10] = test: Tetrad overall (central cannabinoid activity); format: in vivo; settings: 20 mg/kg i.p., tested 60 minutes later
Method: Central activity of the compounds of the invention was assessed in the “tetrad”, which is a series of assays commonly used to measure central cannabimimmetic effects [Martin, B. R. et al. (1991) Pharmacol. Biochem. Behav. 40(3): 471-8; Fride, E. and C. Sanudo-Pena (2002) id. ibid.]. Three parameters for peripheral activity were used. Since gastrointestinal transit is regulated locally in the periphery rather than by centrally located CB1 receptors [Izzo (2000) id. ibid.; Landi (2002) id. ibid.], intestinal motility was one of the parameters used, and peripheral cannabinoid effects was measured as rates of defecation (see Example 29).
as §1

female Sabra mice [11] = test: Intestinal motility after antagonist pre-treatment (SR141716A, SR144528, capsazepine); format: in vivo; settings: for reversal of inhibition of defecation by CB1 antagonist SR141716A / reversal of inhibition of defecation by CB2 antagonist SR144528: agonist 20 mg/kg; for reversal of inhibition of defecation by CB1 antagonist SR141716A: SR141716A 1 mg/kg i.p. 30 minutes before agonist; for reversal of inhibition of defecation by CB2 antagonist SR144528: SR144528 1 or 3 mg/kg i.p. 30 minutes before agonist
Method: (SR1, 1 mg/kg). SR1 was injected (i.p.) 30 minutes before the agonist. 60 minutes after (+)CBD-DMH the number of fecal pellets was recorded.
(SR2, 1 mg/kg). SR2 was injected (i.p.) 30 minutes before the agonist. 60 minutes after (+)-CBD-DMH the number of fecal pellets was recorded.
as §1, §4

[12] = test system: CB1−/− receptor knockout mice; test: Central effects in CB1−/− receptor knockout mice; format: in vivo; settings: not shown
Method: as §5, §1

CB1 receptor = CB1 receptor (Rattus norvegicus, UniProt P20272); settings: cited from earlier work
CB2 receptor = CB2 receptor (Homo sapiens, UniProt P34972); settings: cited from earlier work
Chain of CB2 receptor (P34972 whole entry): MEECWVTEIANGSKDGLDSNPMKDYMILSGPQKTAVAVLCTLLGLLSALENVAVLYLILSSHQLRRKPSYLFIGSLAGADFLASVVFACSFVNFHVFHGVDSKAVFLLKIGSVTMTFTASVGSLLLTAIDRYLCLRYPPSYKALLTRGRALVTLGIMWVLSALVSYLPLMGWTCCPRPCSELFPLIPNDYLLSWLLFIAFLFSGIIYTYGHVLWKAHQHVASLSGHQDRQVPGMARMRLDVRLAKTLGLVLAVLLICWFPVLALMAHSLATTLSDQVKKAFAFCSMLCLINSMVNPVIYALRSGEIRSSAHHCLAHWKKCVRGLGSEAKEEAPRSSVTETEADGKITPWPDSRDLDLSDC

Chain of CB1 receptor (P20272 whole entry): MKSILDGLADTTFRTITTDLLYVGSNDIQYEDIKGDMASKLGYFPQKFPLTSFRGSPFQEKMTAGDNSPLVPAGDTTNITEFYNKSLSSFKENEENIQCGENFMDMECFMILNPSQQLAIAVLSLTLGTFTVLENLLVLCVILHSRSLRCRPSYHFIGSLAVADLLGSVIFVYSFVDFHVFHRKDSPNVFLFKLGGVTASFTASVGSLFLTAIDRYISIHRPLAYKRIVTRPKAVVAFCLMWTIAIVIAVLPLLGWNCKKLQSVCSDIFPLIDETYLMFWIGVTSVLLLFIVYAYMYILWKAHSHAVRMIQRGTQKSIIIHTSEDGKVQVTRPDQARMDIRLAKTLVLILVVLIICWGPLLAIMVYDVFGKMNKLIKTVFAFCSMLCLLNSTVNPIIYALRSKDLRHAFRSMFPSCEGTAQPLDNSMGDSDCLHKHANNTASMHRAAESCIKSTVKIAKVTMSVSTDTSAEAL

C=C(C)C1CCC(C)=CC1c1c(O)cc(C(C)(C)CCCCCC)cc1O (single isomer, unassigned; (+)) [+CBD−DMH, (+)-CBD-DMH]
Horizontal Movements (% MPE) (female Sabra mice [1]): 82 % MPE | effect on rearing in an open-field, in words (female Sabra mice [2]): modest effect | Vertical Movements (% MPE) (female Sabra mice [2]; open field 8 min, normalized, * = P<0.05 vs vehicle): 61 % MPE | Catalepsy (Freezing of Movement) (% MPE) (female Sabra mice [3]): 16 % MPE | centrally mediated pain on hot plate, in words (female Sabra mice [4]; 20 mg/kg): not active; also recorded: not affected | Analgesia (Hot Plate) (% MPE) (female Sabra mice [4]; 20 mg/kg i.p., hot plate 55° C., max 45 sec, normalized, * = P<0.05 vs vehicle): 10 % MPE | Hypothermia (Δ-Body Temp.) (female Sabra mice [5]): −0.3 °C | inhibition of defecation / intestinal motility, in words (female Sabra mice [6]; 60 minutes after injection): completely blocked | Inhibition of Intesitinal Motility (% MPE) (female Sabra mice [6]; defecation in open field 8 min, normalized, * = P<0.05 vs vehicle): 100* % MPE | potency compared to indomethacin in ear inflammation, in words ([7]; listed as (+) CBD-DMH): as effective as indomethacin | potency compared to indomethacin in ear inflammation, in words ([7]; listed as (+)-CBD-DMH): equal potency as indomethacin; also recorded: as potent as indomethacin | potency compared to indomethacin in ear inflammation, in words ([7]; listed as (+)CBD-DMH): Equal potencies | inhibition of arachidonic acid-induced ear inflammation, in words ([7]; i.p., 10 to 40 mg/kg, ear thickness every 15 minutes for 90 minutes): almost completely inhibited | second (inflammatory) phase of formalin-induced pain, in words [8]: completely inhibited the second phase; also recorded: almost completely inhibited; also recorded: almost completely prevented the second phase of pain | effect on intestinal motility in CB1−/− knockout mice [9]: absence of inhibition of intestinal motility; also recorded: None of the drugs assessed ((+)-CBD-DMH, (+)-7-OH-CBD-DMH and Δ^9-THC had any effect; also recorded: no effects | central effects (tetrad), in words (female Sabra mice [10]): absence of central effects or small effects; also recorded: Lack of central effects | reversal of inhibition of defecation by CB1 antagonist SR141716A (female Sabra mice [11]; listed as (+) CBD-DMH): almost fully reversed | reversal of inhibition of defecation by CB1 antagonist SR141716A (female Sabra mice [11]; listed as (+)-CBD-DMH): effectively antagonized; also recorded: partial reversal | reversal of inhibition of defecation by CB2 antagonist SR144528 (female Sabra mice [11]; listed as (+) CBD-DMH): not at all | reversal of inhibition of defecation by CB2 antagonist SR144528 (female Sabra mice [11]; listed as (+)-CBD-DMH): not at all; also recorded: did not prevent; also recorded: no reversal | effect of VR1 antagonist capsazepine on inhibition of defecation (female Sabra mice [11]; data not shown): did not affect | central effects in CB1−/− receptor knockout mice [12]: None of the drugs assessed ((+)-CBD-DMH, (+)-7-OH-CBD-DMH and Δ^9-THC had any effect | pKi (CB1 receptor; first value of CB1/CB2 cell, data from Bisogno et al., 2001, read-out: CB1 Receptor Binding (Ki)): 7.77 | pKd (CB1 receptor; previously reported, Bisogno et al. 2001, read-out: affinity for the CB1 receptor (Kd)): 7.76 | pKd (CB2 receptor; previously reported, Bisogno et al. 2001, read-out: affinity for the CB2 receptor (Kd)): 6.68 | pKi (CB2 receptor; second value of CB1/CB2 cell, data from Bisogno et al., 2001, read-out: CB2 Receptor Binding (Ki)): 6.68
